Reference: ChEMBL document CHEMBL1201862, “PubChem BioAssay data set” (2004)
Activity calls are given as the source filed them.

Legend:
Large T antigen = Large T antigen (Simian virus 40, UniProt P03070); type: functional, Betapolyomavirus macacae;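 also: Confirmatory-stage PubChem screen for compounds that inhibit SV40 T antigen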
Genome polyprotein = Genome polyprotein (dengue virus type 2, UniProt P29990); assay: Dengue-2 NS5 methyltransferase inhibitors, primary screen, biochemical, confirmation dose response (AID 588689); type: functional
Sequence of Genome polyprotein (P29990 2492-3391 limits assumed): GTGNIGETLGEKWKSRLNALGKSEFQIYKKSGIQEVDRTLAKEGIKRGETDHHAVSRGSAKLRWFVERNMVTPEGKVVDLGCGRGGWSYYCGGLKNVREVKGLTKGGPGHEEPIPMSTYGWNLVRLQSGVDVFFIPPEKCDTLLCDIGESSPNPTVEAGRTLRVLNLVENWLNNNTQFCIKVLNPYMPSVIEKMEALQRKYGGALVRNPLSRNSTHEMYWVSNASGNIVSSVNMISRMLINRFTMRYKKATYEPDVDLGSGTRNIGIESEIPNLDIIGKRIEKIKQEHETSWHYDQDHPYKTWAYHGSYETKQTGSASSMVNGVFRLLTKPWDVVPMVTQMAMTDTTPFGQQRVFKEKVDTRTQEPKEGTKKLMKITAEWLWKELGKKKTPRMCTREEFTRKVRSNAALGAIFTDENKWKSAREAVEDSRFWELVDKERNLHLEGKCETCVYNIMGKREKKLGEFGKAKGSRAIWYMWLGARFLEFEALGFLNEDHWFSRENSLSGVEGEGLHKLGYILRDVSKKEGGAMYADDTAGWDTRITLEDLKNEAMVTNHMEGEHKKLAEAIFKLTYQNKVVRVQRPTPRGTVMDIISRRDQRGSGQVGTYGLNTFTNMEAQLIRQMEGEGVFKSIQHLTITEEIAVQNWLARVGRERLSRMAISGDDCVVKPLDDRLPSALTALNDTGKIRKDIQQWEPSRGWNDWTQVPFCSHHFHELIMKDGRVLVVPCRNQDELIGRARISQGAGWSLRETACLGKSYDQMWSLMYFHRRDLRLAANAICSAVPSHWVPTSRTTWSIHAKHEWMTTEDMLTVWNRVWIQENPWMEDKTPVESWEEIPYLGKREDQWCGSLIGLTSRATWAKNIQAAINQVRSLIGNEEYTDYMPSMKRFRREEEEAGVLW

[1] = biological target: T1, Polyadenylate-binding protein 1 (Homo sapiens, UniProt P11940); assay: PABP1 MLLE–PAM2 interaction inhibitors, dose response, miRNA deadenylation inhibitor project, biochemical, fluorescence polarization, Cy5-PAM2 peptide, secondary (AID 602260); type: functional; details: read-out: IC50_Mean
T1 sequence (P11940 whole entry): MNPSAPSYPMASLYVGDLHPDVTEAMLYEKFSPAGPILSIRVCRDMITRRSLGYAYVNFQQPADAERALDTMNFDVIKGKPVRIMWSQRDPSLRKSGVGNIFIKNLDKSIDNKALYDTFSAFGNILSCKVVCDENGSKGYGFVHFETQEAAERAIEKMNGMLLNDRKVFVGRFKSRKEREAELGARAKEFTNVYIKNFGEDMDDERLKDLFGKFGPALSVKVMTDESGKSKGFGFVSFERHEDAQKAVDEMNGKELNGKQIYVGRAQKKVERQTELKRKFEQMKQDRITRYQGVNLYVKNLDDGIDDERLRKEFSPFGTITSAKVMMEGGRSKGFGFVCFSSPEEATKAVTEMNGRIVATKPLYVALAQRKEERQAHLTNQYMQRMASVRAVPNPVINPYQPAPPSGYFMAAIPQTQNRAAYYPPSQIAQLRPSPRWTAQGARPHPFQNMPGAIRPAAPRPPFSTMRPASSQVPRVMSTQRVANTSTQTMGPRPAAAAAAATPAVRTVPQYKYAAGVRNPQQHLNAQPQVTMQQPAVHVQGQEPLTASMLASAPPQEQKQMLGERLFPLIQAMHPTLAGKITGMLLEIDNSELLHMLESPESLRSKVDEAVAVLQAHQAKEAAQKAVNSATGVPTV

[2] = biological target: T1, Polyadenylate-binding protein 1; assay: PABP1 MLLE–PAM2 binding inhibitor potency, dose response, biochemical, fluorescence polarization, FITC-PAM2 peptide (AID 602259); type: functional; details: read-out: IC50_Mean
[3] = biological target: T2, Corticotropin-releasing factor receptor 2/Corticotropin-releasing factor-binding protein (Homo sapiens, UniProt P24387+Q13324); assay: Dose Response confirmation of uHTS hits for small molecule antagonists of the CRF-binding protein and CRF-R2 receptor complex.; type: functional; details: read-out: IC50_Mean
T2 sequence (Q13324 whole entry): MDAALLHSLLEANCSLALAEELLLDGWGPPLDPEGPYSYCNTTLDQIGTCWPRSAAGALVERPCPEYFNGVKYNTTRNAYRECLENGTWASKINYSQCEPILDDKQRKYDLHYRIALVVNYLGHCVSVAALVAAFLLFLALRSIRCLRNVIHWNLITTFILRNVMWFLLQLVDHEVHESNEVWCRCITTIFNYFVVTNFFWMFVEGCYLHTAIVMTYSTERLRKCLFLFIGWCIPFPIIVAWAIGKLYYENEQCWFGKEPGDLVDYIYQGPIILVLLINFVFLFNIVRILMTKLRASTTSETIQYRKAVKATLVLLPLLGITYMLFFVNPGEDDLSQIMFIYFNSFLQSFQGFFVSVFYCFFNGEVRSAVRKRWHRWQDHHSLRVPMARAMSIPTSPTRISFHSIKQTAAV
T2 sequence (P24387 whole entry): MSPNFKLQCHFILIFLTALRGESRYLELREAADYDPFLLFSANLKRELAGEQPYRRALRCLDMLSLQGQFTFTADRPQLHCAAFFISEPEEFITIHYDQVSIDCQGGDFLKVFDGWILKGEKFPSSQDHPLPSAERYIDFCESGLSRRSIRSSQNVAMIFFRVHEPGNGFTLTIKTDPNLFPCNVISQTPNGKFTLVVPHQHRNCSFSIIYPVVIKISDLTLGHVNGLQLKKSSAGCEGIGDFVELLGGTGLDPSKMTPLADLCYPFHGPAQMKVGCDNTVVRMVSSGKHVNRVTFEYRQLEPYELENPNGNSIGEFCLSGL

cells = type: functional
[4] = biological target: T2, Corticotropin-releasing factor receptor 2/Corticotropin-releasing factor-binding protein; assay: activators of CRF receptor 2 with binding protein – uHTS hits, confirmation (AID 602473); type: functional; details: read-out: EC50_Mean
[5] = ZM109 Env clade C HIV-1 fusion inhibitors, dose response, HeLa effector, CEM target cells, luciferase, cherry-pick (AID 652058); type: functional, cell-based
[6] = inhibitors of HIV Env-driven cell fusion, dose response, cherry-pick (AID 652057); type: functional, cell-based
[7] = inhibitors of clade B AD8 Env fusion, dose response, cell-based, cherry-pick (AID 652062); type: functional;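 also: luciferase signal from cell-cell fusion driven by HIV-1 clade B AD8 Env; potency is for inhibitors of fusion seen as a drop in luminescence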
[8] = biological target: T3, Rac GTPase-activating protein 1 (Homo sapiens, UniProt Q9H0H5); assay: MgcRacGAP GTPase-activating activity inhibitors, confirmation, biochemical, ADP Hunter fluorescence, primary and confirmatory (AID 624330); type: functional
T3 sequence (Q9H0H5 whole entry): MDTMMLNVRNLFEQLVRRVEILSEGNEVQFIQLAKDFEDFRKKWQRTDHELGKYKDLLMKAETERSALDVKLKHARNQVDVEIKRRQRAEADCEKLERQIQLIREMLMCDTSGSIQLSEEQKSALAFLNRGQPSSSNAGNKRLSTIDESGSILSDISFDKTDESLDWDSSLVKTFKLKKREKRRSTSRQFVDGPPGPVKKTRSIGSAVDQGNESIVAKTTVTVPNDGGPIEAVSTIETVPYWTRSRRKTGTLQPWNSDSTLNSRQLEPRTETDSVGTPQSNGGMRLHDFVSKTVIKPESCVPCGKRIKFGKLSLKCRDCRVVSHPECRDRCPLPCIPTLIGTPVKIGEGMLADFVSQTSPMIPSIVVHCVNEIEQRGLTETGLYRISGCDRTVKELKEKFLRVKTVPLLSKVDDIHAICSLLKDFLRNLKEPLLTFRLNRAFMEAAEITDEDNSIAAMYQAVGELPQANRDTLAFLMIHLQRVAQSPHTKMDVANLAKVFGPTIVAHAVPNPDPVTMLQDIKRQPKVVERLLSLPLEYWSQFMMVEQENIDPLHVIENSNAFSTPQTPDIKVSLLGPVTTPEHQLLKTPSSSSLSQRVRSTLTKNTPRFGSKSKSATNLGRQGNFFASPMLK

[9] = P. falciparum Dd2 growth inhibitors, dose response, SYBR Green, cherry-picked samples (AID 1159567); type: functional, cell-based

Sequence of Large T antigen (P03070 whole entry): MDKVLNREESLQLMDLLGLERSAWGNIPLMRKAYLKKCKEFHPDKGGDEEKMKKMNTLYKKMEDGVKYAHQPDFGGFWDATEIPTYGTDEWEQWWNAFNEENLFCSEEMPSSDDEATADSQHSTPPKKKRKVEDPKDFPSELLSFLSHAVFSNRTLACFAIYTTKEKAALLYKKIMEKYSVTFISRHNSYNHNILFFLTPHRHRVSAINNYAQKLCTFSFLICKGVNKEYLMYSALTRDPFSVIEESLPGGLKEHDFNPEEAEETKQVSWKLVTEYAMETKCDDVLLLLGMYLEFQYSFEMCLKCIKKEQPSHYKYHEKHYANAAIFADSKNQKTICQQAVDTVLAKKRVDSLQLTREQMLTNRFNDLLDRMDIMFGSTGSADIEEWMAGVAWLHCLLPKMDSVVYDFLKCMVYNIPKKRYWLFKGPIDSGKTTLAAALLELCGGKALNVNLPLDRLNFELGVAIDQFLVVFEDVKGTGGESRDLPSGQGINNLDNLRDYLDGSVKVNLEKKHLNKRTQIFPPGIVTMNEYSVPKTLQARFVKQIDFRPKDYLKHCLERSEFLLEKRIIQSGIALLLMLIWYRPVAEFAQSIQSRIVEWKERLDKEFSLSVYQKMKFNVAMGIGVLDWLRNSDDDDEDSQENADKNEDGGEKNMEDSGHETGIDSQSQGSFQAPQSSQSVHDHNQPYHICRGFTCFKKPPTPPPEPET

COc1cc(CNc2ccc3c(c2)OCCO3)ccc1OCC(N)=O
IC50 (Large T antigen): 40 µM (active)

Nc1nc2ncc(C(=O)c3cc(Cl)cc(Cl)c3O)cc2s1
IC50 (Genome polyprotein): > 100 µM (active)

CCn1nc([N+](=O)[O-])c(C(C#N)c2nc3ccccc3n2C)c(Cl)c1=O (stereo unspecified)
IC50 (Genome polyprotein): > 100 µM (active)

CCc1ccc(C(=O)NC(=S)Nc2ccc(N3CCOCC3)cc2)cc1
IC50 [1]: > 66 µM (inactive)
IC50 [2]: > 66 µM (inactive)

O=C1NC(=O)C(=Cc2ccccc2OCCOc2ccc([N+](=O)[O-])cc2)C(=O)N1
IC50 (Large T antigen): 55.9 µM (active)

O=C(Nc1ccc(O)cc1)c1ccc2c(c1)C(=O)N(Cc1ccco1)C2=O
IC50 (Large T antigen): 9.65 µM (active)

COc1ccc(SC[C@H](C)CN2CC[C@H](C(C)(C)C)CCC2=O)cc1
IC50 [1]: > 66 µM (inactive)
IC50 [2]: > 66 µM (inactive)

CN(C)c1ccc(NC(=O)COC(=O)CCC(=O)c2ccc(F)cc2)cc1
IC50 (Large T antigen): 19.2 µM (active)

COc1c(S(=O)(=O)NCCCN2CCOCC2)ccc(Cl)c1Cl
IC50 [1]: > 66 µM (inactive)
IC50 [2]: > 66 µM (inactive)

CCOC(=O)C1CCN(c2nc3cc(OC)ccc3cc2C#N)CC1
IC50 [3]: > 47.1 µM (inactive)
IC50 (cells): 8.59 µM (active)
EC50 [4]: > 53 µM (inactive)

O=C(O)CN1C(=O)/C(=C\c2cc(Br)ccc2OCc2ccccc2F)SC1=S
IC50 (Genome polyprotein): 33.1 µM (active)

COC(=O)c1ccc2c(=O)n(NC(=O)C(c3ccccc3)c3ccccc3)c(=S)[nH]c2c1
IC50 [1]: > 66 µM (inactive)
IC50 [2]: > 66 µM (inactive)

COc1cc(OC)cc(C(=O)NCC(=O)N2CCN(c3ccc(O)cc3)CC2)c1
IC50 (Large T antigen): 65.2 µM (active)

CCOC(=O)c1c(/N=C/c2cccc([N+](=O)[O-])c2O)sc(C)c1C
IC50 (Genome polyprotein): 77.1 µM (active)
IC50 [2]: 36.1 µM (inactive)

Fc1c(F)c(F)c(/C=N/NC(=S)Nc2cccnc2)c(F)c1F
IC50 [1]: > 66 µM (inactive)
IC50 [2]: > 66 µM (inactive)

COc1ccc(S(=O)(=O)N[C@H]2C=C[C@H](CC(=O)N3CCN(c4ccccc4)CC3)O[C@@H]2CO)cc1
AC50 [5]: 36.8 µM (active)
AC50 [6]: 26.7 µM (active)

O=C(C[C@@H]1CC[C@H](NC(=O)c2cccc(F)c2)[C@H](CO)O1)NCc1ccc(Oc2ccccc2)cc1
AC50 [7]: 15.2 µM (active)
AC50 [5]: 27 µM (active)
AC50 [6]: 28.5 µM (active)

COc1ccc(S(=O)(=O)N(C)C[C@@H]2Oc3ccc(NC(=O)Cn4cnnn4)cc3CC(=O)N([C@H](C)CO)C[C@@H]2C)cc1
AC50 [7]: 3.68 µM (active)
AC50 [5]: 2.33 µM (active)
AC50 [6]: 3.38 µM (active)

Cc1ccc(S(=O)(=O)Nc2ccc3c(c2)CC(=O)N([C@H](C)CO)C[C@H](C)[C@H](CN(C)S(=O)(=O)c2ccc(C)cc2)O3)cc1
AC50 [7]: 4.36 µM (active)
AC50 [6]: 1.19 µM (active)

COc1ccc2[nH]c3c(=O)n(CCCCC(=O)NCCN4CCCC4)c(=S)[nH]c3c2c1
IC50 (Large T antigen): 10.4 µM (active)

Oc1ccc(/C=N/NC(=S)NCC2CCCO2)cc1 (stereo unspecified)
IC50 [8]: 30.8 µM (active)
IC50 (Large T antigen): 5.89 µM (active)

CN(C)c1ccc2c(c1)[C@H]1C[C@H](CC(=O)NCc3ccc(Oc4ccccc4)cc3)O[C@H](CO)[C@H]1O2
AC50 [9]: 10.5 µM (active)

COc1ccc2c3c([nH]c2c1)[C@H](CO)N(Cc1ccccc1OC)CC31CCN(S(=O)(=O)c2ccccc2)CC1
AC50 [9]: 6.43 µM (active)

CCCNC(=O)Nc1ccc2c(c1)OC[C@H](C)N(Cc1ccc(-c3ccccn3)cc1)C[C@H](C)[C@H](OC)CN(C)C2=O
AC50 [9]: 5.09 µM (active)

O=C(Nc1ccc(F)cc1)N1CCCCN2[C@H](C1)[C@H](c1ccc(C#Cc3ccccc3)cc1)[C@@H]2CO
AC50 [9]: 5.46 µM (active)

CO[C@H]1CN(C)C(=O)c2cc(NC(=O)Cc3ccccc3)ccc2OC[C@H](C)N(C(=O)c2ccccc2F)C[C@H]1C
AC50 [9]: 4.94 µM (active)
